# Test results as given in the supplement of paper PMC10307832.
# Assays:
# Assay in all cases: relative viability (nuclei count vs DMSO), 5 days (fraction); higher = more cells survive
# [1] = tested on: NCI-H727
# In short: (§1)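 Relative viability was taken as the ratio of nuclei in treated wells to nuclei in vehicle wells. Lung cancer cell lines in 1536-well plates received compounds by pin tool one day after seeding, either one drug alone or a fixed anchor-drug dose plus five library-drug doses (not always all listed) in √10 steps. Nuclei were counted on 4× images after 5 days of treatment, and values are medians of duplicate plates.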
# [2] = tested on: EMC-BAC-2
# In short: as §1
# [3] = tested on: NCI-H1650
# In short: as §1
# [4] = tested on: NCI-H1734
# In short: as §1
# [5] = tested on: EKVX
# In short: as §1
# [6] = tested on: COR-L 105
# In short: as §1
# [7] = tested on: NCI-H2126
# In short: as §1
# [8] = tested on: LK-2
# In short: as §1
# [9] = tested on: EPLC-272H
# In short: as §1
# [10] = tested on: NCI-H1944
# In short: as §1
# [11] = tested on: NCI-H1792
# In short: as §1
# [12] = tested on: SW 1573
# In short: as §1
# [13] = tested on: BEN
# In short: as §1
# [14] = tested on: HCC-78
# In short: as §1
# [15] = tested on: HCC-827
# In short: as §1
# [16] = tested on: RERF-LC-KJ
# In short: as §1
# [17] = tested on: NCI-H2087
# In short: as §1
# [18] = tested on: LCLC-97TM1
# In short: as §1
# [19] = tested on: LOU-NH91
# In short: as §1
# [20] = tested on: LU99A
# In short: as §1
# [21] = tested on: SK-MES-1
# In short: as §1
# [22] = tested on: NCI-H358
# In short: as §1
# [23] = tested on: ChaGo-K-1
# In short: as §1
smiles,measurement,setting,value
Cc1cnc(-c2cnc(NCCNc3ccc(C#N)cn3)nc2-c2ccc(Cl)cc2Cl)[nH]1 + CS(=O)(=O)N1CCN(Cc2cc3nc(-c4cccc5[nH]ncc45)nc(N4CCOCC4)c3s2)CC1 [Pictilisib] (partner 1 µM),relative viability,[1]; first compound 0.08 µM,0.462
same,relative viability,[1]; first compound 0.253 µM,0.259
same,relative viability,[1]; first compound 0.8 µM,0.378
same,relative viability,[1]; first compound 2.53 µM,0.435
same,relative viability,[2]; first compound 0.08 µM,0.579
same,relative viability,[2]; first compound 0.253 µM,0.525
same,relative viability,[2]; first compound 0.8 µM,0.515
same,relative viability,[2]; first compound 2.53 µM,0.567
same,relative viability,[3]; first compound 0.08 µM,0.682
same,relative viability,[3]; first compound 0.253 µM,0.595
same,relative viability,[3]; first compound 0.8 µM,0.518
same,relative viability,[3]; first compound 2.53 µM,0.597
same,relative viability,[4]; first compound 0.08 µM,0.548
same,relative viability,[4]; first compound 0.253 µM,0.43
same,relative viability,[4]; first compound 0.8 µM,0.432
same,relative viability,[4]; first compound 2.53 µM,0.522
same,relative viability,[5]; first compound 0.08 µM,0.462
same,relative viability,[5]; first compound 0.253 µM,0.394
same,relative viability,[5]; first compound 0.8 µM,0.374
same,relative viability,[5]; first compound 2.53 µM,0.392
same,relative viability,[6]; first compound 0.08 µM,0.344
same,relative viability,[6]; first compound 0.253 µM,0.468
same,relative viability,[6]; first compound 0.8 µM,0.176
same,relative viability,[6]; first compound 2.53 µM,0.385
same,relative viability,[7]; first compound 0.08 µM,0.512
same,relative viability,[7]; first compound 0.253 µM,0.468
same,relative viability,[7]; first compound 0.8 µM,0.494
same,relative viability,[7]; first compound 2.53 µM,0.559
same,relative viability,[8]; first compound 0.08 µM,0.646
same,relative viability,[8]; first compound 0.253 µM,0.577
same,relative viability,[8]; first compound 0.8 µM,0.618
same,relative viability,[8]; first compound 2.53 µM,1.11
same,relative viability,[9]; first compound 0.08 µM,0.337
same,relative viability,[9]; first compound 0.253 µM,0.325
same,relative viability,[9]; first compound 0.8 µM,0.316
same,relative viability,[9]; first compound 2.53 µM,0.358
same,relative viability,[10]; first compound 0.08 µM,0.342
same,relative viability,[10]; first compound 0.8 µM,0.334
same,relative viability,[10]; first compound 2.53 µM,0.38
same,relative viability,[11]; first compound 0.08 µM,0.34
same,relative viability,[11]; first compound 0.253 µM,0.268
same,relative viability,[11]; first compound 0.8 µM,0.25
same,relative viability,[11]; first compound 2.53 µM,0.385
same,relative viability,[12]; first compound 0.08 µM,0.487
same,relative viability,[12]; first compound 0.253 µM,0.492
same,relative viability,[12]; first compound 0.8 µM,0.552
same,relative viability,[12]; first compound 2.53 µM,0.327
same,relative viability,[13]; first compound 0.08 µM,0.572
same,relative viability,[13]; first compound 0.253 µM,0.596
same,relative viability,[13]; first compound 0.8 µM,0.612
same,relative viability,[13]; first compound 2.53 µM,0.648
same,relative viability,[14]; first compound 0.08 µM,0.198
same,relative viability,[14]; first compound 0.253 µM,0.253
same,relative viability,[14]; first compound 0.8 µM,0.233
same,relative viability,[14]; first compound 2.53 µM,0.308
same,relative viability,[15]; first compound 0.08 µM,1.02
same,relative viability,[15]; first compound 0.8 µM,0.951
same,relative viability,[15]; first compound 2.53 µM,0.813
same,relative viability,[16]; first compound 0.08 µM,0.662
same,relative viability,[16]; first compound 0.253 µM,0.496
same,relative viability,[16]; first compound 0.8 µM,0.497
same,relative viability,[16]; first compound 2.53 µM,0.548
same,relative viability,[17]; first compound 0.08 µM,0.853
same,relative viability,[17]; first compound 0.253 µM,0.754
same,relative viability,[17]; first compound 0.8 µM,0.975
same,relative viability,[17]; first compound 2.53 µM,1.06
same,relative viability,[18]; first compound 0.08 µM,0.231
same,relative viability,[18]; first compound 0.253 µM,0.234
same,relative viability,[18]; first compound 0.8 µM,0.158
same,relative viability,[18]; first compound 2.53 µM,0.172
same,relative viability,[19]; first compound 0.08 µM,0.532
same,relative viability,[19]; first compound 0.253 µM,0.531
same,relative viability,[19]; first compound 0.8 µM,0.504
same,relative viability,[19]; first compound 2.53 µM,0.564
same,relative viability,[20]; first compound 0.08 µM,0.314
same,relative viability,[20]; first compound 0.253 µM,0.348
same,relative viability,[20]; first compound 0.8 µM,0.348
same,relative viability,[20]; first compound 2.53 µM,0.41
same,relative viability,[21]; first compound 0.08 µM,0.406
same,relative viability,[21]; first compound 0.253 µM,0.378
same,relative viability,[21]; first compound 0.8 µM,0.38
same,relative viability,[21]; first compound 2.53 µM,0.403
same,relative viability,[22]; first compound 0.08 µM,0.301
same,relative viability,[22]; first compound 0.8 µM,0.389
same,relative viability,[22]; first compound 2.53 µM,0.264
same,relative viability,[23]; first compound 0.08 µM,0.612
same,relative viability,[23]; first compound 0.253 µM,0.828
same,relative viability,[23]; first compound 0.8 µM,0.375
same,relative viability,[23]; first compound 2.53 µM,0.623
Cc1cnc(-c2cnc(NCCNc3ccc(C#N)cn3)nc2-c2ccc(Cl)cc2Cl)[nH]1 + C[C@@H](Oc1cc(-c2cnn(C3CCNCC3)c2)cnc1N)c1c(Cl)ccc(F)c1Cl [Crizotinib] (partner 1 µM),relative viability,[1]; first compound 0.08 µM,1.67
same,relative viability,[1]; first compound 0.253 µM,0.771
same,relative viability,[1]; first compound 0.8 µM,0.797
same,relative viability,[1]; first compound 2.53 µM,0.676
same,relative viability,[2]; first compound 0.08 µM,0.841
same,relative viability,[2]; first compound 0.253 µM,0.739
same,relative viability,[2]; first compound 0.8 µM,0.814
same,relative viability,[2]; first compound 2.53 µM,0.703
same,relative viability,[3]; first compound 0.08 µM,0.92
same,relative viability,[3]; first compound 0.253 µM,0.909
same,relative viability,[3]; first compound 0.8 µM,1.07
same,relative viability,[3]; first compound 2.53 µM,0.844
same,relative viability,[4]; first compound 0.08 µM,0.65
same,relative viability,[4]; first compound 0.253 µM,0.636
same,relative viability,[4]; first compound 0.8 µM,0.647
same,relative viability,[4]; first compound 2.53 µM,0.631
same,relative viability,[5]; first compound 0.08 µM,0.938
same,relative viability,[5]; first compound 0.253 µM,0.823
same,relative viability,[5]; first compound 0.8 µM,0.854
same,relative viability,[5]; first compound 2.53 µM,0.993
same,relative viability,[6]; first compound 0.08 µM,0.869
same,relative viability,[6]; first compound 0.253 µM,0.716
same,relative viability,[6]; first compound 0.8 µM,0.706
same,relative viability,[6]; first compound 2.53 µM,0.529
same,relative viability,[7]; first compound 0.08 µM,0.996
same,relative viability,[7]; first compound 0.253 µM,1.02
same,relative viability,[7]; first compound 0.8 µM,0.968
same,relative viability,[7]; first compound 2.53 µM,1.01
same,relative viability,[8]; first compound 0.08 µM,0.194
same,relative viability,[8]; first compound 0.253 µM,0.239
same,relative viability,[8]; first compound 0.8 µM,0.242
same,relative viability,[8]; first compound 2.53 µM,0.236
same,relative viability,[9]; first compound 0.08 µM,0.928
same,relative viability,[9]; first compound 0.253 µM,0.872
same,relative viability,[9]; first compound 0.8 µM,0.832
same,relative viability,[9]; first compound 2.53 µM,0.883
same,relative viability,[10]; first compound 0.08 µM,1.11
same,relative viability,[10]; first compound 0.8 µM,1.16
same,relative viability,[10]; first compound 2.53 µM,1.1
same,relative viability,[11]; first compound 0.08 µM,0.975
same,relative viability,[11]; first compound 0.253 µM,0.803
same,relative viability,[11]; first compound 0.8 µM,0.947
same,relative viability,[11]; first compound 2.53 µM,0.936
same,relative viability,[12]; first compound 0.08 µM,0.932
same,relative viability,[12]; first compound 0.253 µM,0.879
same,relative viability,[12]; first compound 0.8 µM,0.785
same,relative viability,[12]; first compound 2.53 µM,0.772
same,relative viability,[13]; first compound 0.08 µM,0.908
same,relative viability,[13]; first compound 0.253 µM,0.787
same,relative viability,[13]; first compound 0.8 µM,0.846
same,relative viability,[13]; first compound 2.53 µM,0.876
same,relative viability,[14]; first compound 0.08 µM,0.349
same,relative viability,[14]; first compound 0.253 µM,0.336
same,relative viability,[14]; first compound 0.8 µM,0.297
same,relative viability,[14]; first compound 2.53 µM,0.362
same,relative viability,[15]; first compound 0.08 µM,0.929
same,relative viability,[15]; first compound 0.8 µM,0.882
same,relative viability,[15]; first compound 2.53 µM,0.923
same,relative viability,[16]; first compound 0.08 µM,0.833
same,relative viability,[16]; first compound 0.253 µM,0.712
same,relative viability,[16]; first compound 0.8 µM,0.794
same,relative viability,[16]; first compound 2.53 µM,0.846
same,relative viability,[17]; first compound 0.08 µM,0.744
same,relative viability,[17]; first compound 0.253 µM,0.823
same,relative viability,[17]; first compound 0.8 µM,0.862
same,relative viability,[17]; first compound 2.53 µM,0.693
same,relative viability,[18]; first compound 0.08 µM,0.338
same,relative viability,[18]; first compound 0.253 µM,0.401
same,relative viability,[18]; first compound 0.8 µM,0.362
same,relative viability,[18]; first compound 2.53 µM,0.349
same,relative viability,[19]; first compound 0.08 µM,0.74
same,relative viability,[19]; first compound 0.253 µM,0.724
same,relative viability,[19]; first compound 0.8 µM,0.749
same,relative viability,[19]; first compound 2.53 µM,0.782
same,relative viability,[20]; first compound 0.08 µM,0.621
same,relative viability,[20]; first compound 0.253 µM,0.459
same,relative viability,[20]; first compound 0.8 µM,0.534
same,relative viability,[20]; first compound 2.53 µM,0.592
same,relative viability,[21]; first compound 0.08 µM,0.97
same,relative viability,[21]; first compound 0.253 µM,0.937
same,relative viability,[21]; first compound 0.8 µM,1.05
same,relative viability,[21]; first compound 2.53 µM,0.941
same,relative viability,[22]; first compound 0.08 µM,0.609
same,relative viability,[22]; first compound 0.253 µM,0.548
same,relative viability,[22]; first compound 0.8 µM,0.569
same,relative viability,[22]; first compound 2.53 µM,0.46
same,relative viability,[23]; first compound 0.08 µM,1.17
same,relative viability,[23]; first compound 0.253 µM,0.999
same,relative viability,[23]; first compound 0.8 µM,1.06
same,relative viability,[23]; first compound 2.53 µM,0.989
